Assay results: US20260325533A1, “CDK INHIBITOR COMPOUNDS” (ALEKSIA THERAPEUTICS, INC., priority 2023, published 2026)
Where two headings read alike, the source gives them in different places.

How the values were obtained:
Type in all cases: biochemical
CDK2/CCNE1 = CDK2/CCNE1 (Homo sapiens, UniProt P24941); experiment: CDK2 homogeneous time-resolved fluorescence (HTRF) kinase assay; details: CDK2/CCNE
Summary of the method: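 3 nM CDK2/CCNE1 was preincubated with compound for 20 min at 23 °C in HEPES buffer (pH not stated), then reacted 60 min with 1 mM ATP and 50 nM ULight-4E-BP1 (Thr37/46) peptide. After EDTA stop, Eu-anti-phospho-4E-BP1 antibody (2 nM) was added for 60 min and TR-FRET read at 665 nm.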

CDK1/CCNB1 = CDK1/CCNB1 (Homo sapiens, UniProt P06493); experiment: CDK1 homogeneous time-resolved fluorescence (HTRF) kinase assay; details: CDK1/CCNB
CDK1/CCNB1, sequence (P06493 whole entry): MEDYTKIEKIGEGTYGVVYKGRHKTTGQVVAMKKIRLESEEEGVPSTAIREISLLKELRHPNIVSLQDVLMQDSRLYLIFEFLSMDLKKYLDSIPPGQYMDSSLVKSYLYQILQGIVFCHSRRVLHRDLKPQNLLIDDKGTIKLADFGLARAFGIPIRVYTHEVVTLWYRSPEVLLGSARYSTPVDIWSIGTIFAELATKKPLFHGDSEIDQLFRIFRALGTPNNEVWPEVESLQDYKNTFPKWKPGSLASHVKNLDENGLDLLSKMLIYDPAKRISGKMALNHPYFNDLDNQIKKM
CDK1/CCNB1, sequence (P14635 whole entry partner): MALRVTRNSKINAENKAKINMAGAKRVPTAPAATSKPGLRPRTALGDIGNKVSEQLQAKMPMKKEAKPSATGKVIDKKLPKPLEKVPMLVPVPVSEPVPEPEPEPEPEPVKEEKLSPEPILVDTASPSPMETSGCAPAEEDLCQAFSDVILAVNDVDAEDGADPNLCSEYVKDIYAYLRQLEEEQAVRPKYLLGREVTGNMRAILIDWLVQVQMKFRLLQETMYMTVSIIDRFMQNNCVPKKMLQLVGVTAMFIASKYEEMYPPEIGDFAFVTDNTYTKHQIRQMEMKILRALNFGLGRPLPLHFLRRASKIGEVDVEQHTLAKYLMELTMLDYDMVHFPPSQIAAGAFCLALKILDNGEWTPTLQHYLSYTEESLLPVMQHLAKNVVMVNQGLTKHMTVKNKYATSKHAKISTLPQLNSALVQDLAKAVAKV
Summary of the method: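 Kinase activity is measured as Lance signal (665 nm, or 665/615 nm ratio) from europium-labelled anti-phospho-Thr37/46 antibody binding ULight-4E-BP1 peptide. Reactions contain 0.5 nM enzyme, 1 mM ATP, 1% DMSO and run 60 min at 23 °C before EDTA quench.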

CDK4/CCND3 = CDK4/CCND3 (Homo sapiens, UniProt P11802); experiment: CDK4 homogeneous time-resolved fluorescence (HTRF) kinase assay; details: CDK4/CCND
CDK4/CCND3, sequence (P11802 whole entry): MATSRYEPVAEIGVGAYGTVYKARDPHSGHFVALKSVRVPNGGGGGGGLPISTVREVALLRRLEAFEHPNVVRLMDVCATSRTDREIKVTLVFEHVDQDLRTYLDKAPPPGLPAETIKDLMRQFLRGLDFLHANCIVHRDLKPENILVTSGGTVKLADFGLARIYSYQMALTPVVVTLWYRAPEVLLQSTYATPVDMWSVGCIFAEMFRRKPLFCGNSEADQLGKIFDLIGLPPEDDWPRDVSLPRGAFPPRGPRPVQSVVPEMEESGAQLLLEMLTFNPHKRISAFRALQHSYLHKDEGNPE
CDK4/CCND3, sequence (P30281 whole entry partner): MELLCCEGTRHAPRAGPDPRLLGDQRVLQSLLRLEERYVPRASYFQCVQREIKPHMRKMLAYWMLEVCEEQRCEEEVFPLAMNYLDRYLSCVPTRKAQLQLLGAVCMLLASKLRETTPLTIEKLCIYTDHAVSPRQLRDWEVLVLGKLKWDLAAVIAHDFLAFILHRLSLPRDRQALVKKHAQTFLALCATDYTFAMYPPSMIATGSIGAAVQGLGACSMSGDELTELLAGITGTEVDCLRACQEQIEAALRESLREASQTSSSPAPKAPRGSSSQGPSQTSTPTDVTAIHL
Procedure: (§1) A CDK homogeneous time-resolved fluorescence (HTRF) assay was used to assess the potency of the compounds described herein.
(§2) To an untreated 384-well microtiter plate (ProxiPlate) was added 100 nL 100×test compound in DMSO and 5 μL 2×CDK enzyme in assay buffer (50 mM HEPES, 1 mM EGTA, 10 mM MgCl2, 0.01% Tween 20, 2 mM DTT). The plate was centrifuged at 800 RPM for 1 min then incubated for 20 min at 23 °C. 2.5 μL per well of 4×ATP and 2.5 μL 4×ULight™-eIF4E-binding protein 1 (Thr37/46) Peptide substrate were added to all wells. After addition, the plates were centrifuged at 800 RPM for 1 min. The plates were incubated at 23 °C for 60 min. 5 μL per well 4×EDTA solution were added to each well to stop the reaction. 5 μL 4×LANCE Ultra Europium-anti-phospho-eIF4E-binding protein 1 (Thr37/46) antibody were added to each well and the plate was centrifuged for 1 min at 800 RPM. The plate was incubated for 60 min at 23 °C. Fluorescence was read at 340 nm excitation and 665 nm emission on an EnVision 2105 fluorescence reader. The final concentrations of reagents in the activity assay were 1.5 nM CDK4/CCND3, 1 mM ATP, 50 nM ULight™-eIF4E-binding protein 1 (Thr37/46) Peptide substrate, 1% DMSO, 10 mM EDTA, and 2 nM LANCE Ultra Europium-anti-phospho-eIF4E-binding protein 1 (Thr37/46).
(§3) Dose-response titrations were conducted by using an 11-point, half-logarithmic serial dilution scheme typically starting at 10 μM. Signals were reported as fluorescence units at 665 nm or the ratio of fluorescence units at 665 nm/fluorescence units at 615 nm. Signals are referred to below as “Lance signals”.
(§4) Using this assay, the IC50 values of example compounds were determined. Table 3 illustrates the IC50 for various Example compounds of Formula IA. Table 4 illustrates the IC50 for various other Example compounds of Formula I. ND=not determined.

CDK6/CCND1 = CDK6/CCND1 (Homo sapiens, UniProt Q00534); experiment: CDK6 homogeneous time-resolved fluorescence (HTRF) kinase assay; details: CDK6/CCND
CDK6/CCND1, sequence (Q00534 whole entry): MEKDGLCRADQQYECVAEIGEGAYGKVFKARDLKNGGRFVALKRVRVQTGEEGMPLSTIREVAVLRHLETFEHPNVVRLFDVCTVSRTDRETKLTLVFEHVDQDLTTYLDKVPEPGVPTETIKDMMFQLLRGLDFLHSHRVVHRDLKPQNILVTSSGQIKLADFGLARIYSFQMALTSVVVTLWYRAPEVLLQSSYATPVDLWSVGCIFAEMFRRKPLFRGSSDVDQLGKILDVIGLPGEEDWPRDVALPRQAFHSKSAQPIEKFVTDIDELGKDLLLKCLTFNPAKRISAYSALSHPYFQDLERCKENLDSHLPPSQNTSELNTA
CDK6/CCND1, sequence (P24385 whole entry partner): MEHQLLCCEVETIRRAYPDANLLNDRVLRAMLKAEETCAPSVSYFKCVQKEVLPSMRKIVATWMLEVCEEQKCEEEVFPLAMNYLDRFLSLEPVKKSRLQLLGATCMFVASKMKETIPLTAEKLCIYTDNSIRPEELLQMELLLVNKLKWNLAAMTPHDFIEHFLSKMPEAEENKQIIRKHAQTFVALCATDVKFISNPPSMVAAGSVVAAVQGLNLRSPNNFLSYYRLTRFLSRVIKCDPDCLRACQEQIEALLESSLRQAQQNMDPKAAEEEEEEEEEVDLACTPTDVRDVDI
Procedure: as §1
as §2, with “1” for “1.5”, “CDK6/CCND1,” for “CDK4/CCND3,”
as §3, §4

[1] = x = IC50 <25 nM, read-out: CDK2/CCNE IC50 (<25 nM)
[2] = x = IC50 25-250 nM, read-out: CDK1/CCNB IC50 (25-250 nM)
[3] = x = IC50 >250 nM, read-out: CDK4/CCND IC50 (>250 nM column)
[4] = x = IC50 >250 nM, read-out: CDK6/CCND IC50 (>250 nM column)
[5] = x = IC50 25-250 nM, read-out: CDK2/CCNE IC50 (25-250 nM)
[6] = x = IC50 >250 nM, read-out: CDK1/CCNB IC50 (>250 nM column)
[7] = 25-250 nM marked x, read-out: CDK1/CCNB IC50 25-250 nM
[8] = 25-250 nM marked x, read-out: CDK4/CCND IC50 25-250 nM
[9] = 25-250 nM marked x, read-out: CDK6/CCND IC50 25-250 nM
[10] = >250 nM marked x, read-out: CDK1/CCNB IC50 >250 nM
[11] = x = IC50 25-250 nM, read-out: CDK4/CCND IC50 (25-250 nM)
[12] = <25 nM, read-out: CDK4/CCND IC50 <25 nM

SMILES | IC50 (CDK4/CCND3; [3]) [nM] | IC50 (CDK6/CCND1; [4]) [nM] | IC50 (CDK4/CCND3; [8]) [nM] | IC50 (CDK6/CCND1; [9]) [nM] | other results
CC(C)S(=N)(=O)c1ccc(Nc2cc3c(C#Cc4ccc5c(c4)NC(=O)C54CCC4)nccc3cn2)cc1 (single isomer, unassigned) [Ex 384, 6'-((7-((4-(propan-2-ylsulfonimidoyl)phenyl)amino)-2,6-naphthyridin-1-yl)ethynyl)spiro[cyclobutane-1,3'-indolin]-2'-one] | > 250 | > 250 |  |  | 
CCS(=N)(=O)c1ccc(Nc2cc3c(C#Cc4ccc5c(c4)NC(=O)C54CC4)nccc3cn2)c(OC)c1 (single isomer, unassigned) [Ex 290, 6'-((7-((4-(ethylsulfonimidoyl)-2-methoxyphenyl)amino)-2,6-naphthyridin-1-yl)ethynyl)spiro[cyclopropane-1,3'-indolin]-2'-one] |  |  | 25 to 250 | 25 to 250 | IC50 (CDK1/CCNB1; [7]): 25 to 250 nM
CS(=O)(=O)N1CCC(Nc2cc3c(N4CCC(C#N)C4)nccc3cn2)CC1 (single isomer, unassigned) [Ex 261, 1-(7-((1-(methylsulfonyl)piperidin-4-yl)amino)-2,6-naphthyridin-1-yl)pyrrolidine-3-carbonitrile] |  |  | 25 to 250 | 25 to 250 | IC50 (CDK1/CCNB1; [10]): > 250 nM
CCS(=N)(=O)c1ccc(Nc2cc3c(C#Cc4ccc5c(c4)NC(=O)C54CC4)nccc3cn2)cc1 (racemic) [Ex 376, 6'-((7-((4-(ethylsulfonimidoyl)phenyl)amino)-2,6-naphthyridin-1-yl)ethynyl)spiro[cyclopropane-1,3'-indolin]-2'-one] |  |  |  |  | IC50 (CDK1/CCNB1; [2]): 25 to 250 nM; IC50 (CDK4/CCND3; [11]): 25 to 250 nM; IC50 (CDK6/CCND1; x = IC50 25-250 nM, read-out: CDK6/CCND IC50 (25-250 nM)): 25 to 250 nM
Cc1cc(S(C)(=N)=O)ccc1Nc1cc2c(C#Cc3ccc4c(c3)NC(=O)C43CCC3)nccc2cn1 (single isomer, unassigned) [Ex 333, 6'-((7-((2-methyl-4-(S-methylsulfonimidoyl)phenyl)amino)-2,6-naphthyridin-1-yl)ethynyl)spiro[cyclobutane-1,3'-indolin]-2'-one] |  |  | 25 to 250 |  | IC50 (CDK1/CCNB1; [7]): 25 to 250 nM
CS(=O)(=O)N1CCC(Nc2cc3c(-c4ccc(C#N)nc4)nccc3cn2)CC1 [Ex 61, 5-(7-((1-(methylsulfonyl)piperidin-4-yl)amino)-2,6-naphthyridin-1-yl)picolinonitrile] |  |  | 25 to 250 | 25 to 250 | IC50 (CDK1/CCNB1; [10]): > 250 nM
CNC(=O)C1CCCN(c2nccc3cnc(NC4CCN(S(C)(=O)=O)CC4)cc23)C1 (single isomer, unassigned) [Ex 33, N-methyl-1-(7-((1-(methylsulfonyl)piperidin-4-yl)amino)-2,6-naphthyridin-1-yl)piperidine-3-carboxamide] |  |  |  | 25 to 250 | IC50 (CDK1/CCNB1; [10]): > 250 nM; IC50 (CDK4/CCND3; [12]): < 25 nM
CCC1(CC)C(=O)Nc2cc(C#Cc3nccc4cnc(Nc5ccc(S(=O)(=O)C6CC6)cc5)cc34)ccc21 [Ex 408, 6-((7-((4-(cyclopropylsulfonyl)phenyl)amino)-2,6-naphthyridin-1-yl)ethynyl)-3,3-diethylindolin-2-one] | > 250 | > 250 |  |  | IC50 (CDK1/CCNB1; [6]): > 250 nM
Cc1cc2c(cc1C#Cc1nccc3cnc(Nc4ccc(S(=N)(=O)C(C)C)cc4)cc13)NC(=O)C2(C)C (single isomer, unassigned) [Ex 343, 3,3,5-trimethyl-6-((7-((4-(propan-2-ylsulfonimidoyl)phenyl)amino)-2,6-naphthyridin-1-yl)ethynyl)indolin-2-one] |  |  |  |  | IC50 (CDK2/CCNE1; [1]): < 25 nM; IC50 (CDK1/CCNB1; [2]): 25 to 250 nM; IC50 (CDK4/CCND3; [11]): 25 to 250 nM
CC(C)S(=N)(=O)c1ccc(Nc2cc3c(C#Cc4ccc5c(c4)NC(=O)C5(C)CO)nccc3cn2)cc1 (single isomer, unassigned) [Ex 329, 3-(hydroxymethyl)-3-methyl-6-((7-((4-(propan-2-ylsulfonimidoyl)phenyl)amino)-2,6-naphthyridin-1-yl)ethynyl)indolin-2-one] |  |  |  | 25 to 250 | IC50 (CDK4/CCND3; [12]): < 25 nM
CS(=O)(=O)N1CCC(Nc2cc3c(-c4ccc(N5CCOCC5)cc4)nccc3cn2)CC1 [Ex 65, N-(1-(methylsulfonyl)piperidin-4-yl)-5-(4-morpholinophenyl)-2,6-naphthyridin-3-amine] |  |  | 25 to 250 | 25 to 250 | IC50 (CDK2/CCNE1; 25-250 nM marked x, read-out: CDK2/CCNE IC50 25-250 nM): 25 to 250 nM

Continued, in another order:

IC50 (CDK4/CCND3; [3]) [nM] | IC50 (CDK6/CCND1; [4]) [nM] | IC50 (CDK4/CCND3; [8]) [nM] | IC50 (CDK6/CCND1; [9]) [nM] | SMILES | other results
> 250 | > 250 |  |  | Nc1ncccc1C#Cc1nccc2cnc(Nc3ccc(S(N)(=O)=O)cc3)cc12 [Example 475, 4-((5-((2-aminopyridin-3-yl)ethynyl)-2,6-naphthyridin-3-yl)amino)benzenesulfonamide] | IC50 (CDK2/CCNE1; [1]): < 25 nM; IC50 (CDK1/CCNB1; [2]): 25 to 250 nM
> 250 | > 250 |  |  | COC(=O)c1ccc(C#Cc2nccc3cnc(Nc4ccc(S(C)(=O)=O)cc4)cc23)cn1 [Ex 521, methyl 5-((7-((4-(methylsulfonyl)phenyl)amino)-2,6-naphthyridin-1-yl)ethynyl)picolinate] | IC50 (CDK2/CCNE1; [5]): 25 to 250 nM; IC50 (CDK1/CCNB1; [6]): > 250 nM
> 250 | > 250 |  |  | CC(=O)Nc1cc(Nc2cc3c(-c4ccc5c(cnn5CCO)c4C)nccc3cn2)ccc1S(C)(=O)=O [Example 593, N-(5-((5-(1-(2-hydroxyethyl)-4-methyl-1H-indazol-5-yl)-2,6-naphthyridin-3-yl)amino)-2-(methylsulfonyl)phenyl)acetamide] | IC50 (CDK2/CCNE1; [5]): 25 to 250 nM; IC50 (CDK1/CCNB1; [6]): > 250 nM
> 250 | > 250 |  |  | CC(=O)NCCn1cc2c(C)c(-c3nccc4cnc(Nc5ccc(S(C)(=O)=O)cc5)cc34)ccc2n1 [Ex 632, N-(2-(4-methyl-5-(7-((4-(methylsulfonyl)phenyl)amino)-2,6-naphthyridin-1-yl)-2H-indazol-2-yl)ethyl)acetamide] | IC50 (CDK2/CCNE1; [5]): 25 to 250 nM
> 250 | > 250 |  |  | CC1(C)C(=O)Nc2cc(C#Cc3nccc4cnc(Nc5ccc(S(C)(=O)=O)cc5F)cc34)ccc21 [Ex 438, 6-((7-((2-fluoro-4-(methylsulfonyl)phenyl)amino)-2,6-naphthyridin-1-yl)ethynyl)-3,3-dimethylindolin-2-one] | IC50 (CDK2/CCNE1; [1]): < 25 nM
